According to PMC3661511, “Impact of Glucocorticoid Receptor Density on Ligand-Independent Dimerization, Cooperative Ligand-Binding and Basal Priming of Transactivation: A Cell Culture Model” (PLoS ONE, 2013):
Where two headings read alike, the source gives them in different places.

B1: GFP-tagged dimerization-deficient glucocorticoid receptor (pEGFP-C2-GRA477T, carrying the GRdim sequence from pHisGRA458T) (receptor, human, UniProt P04150 1-777, looked up)
chain: MDSKESLTPGREENPSSVLAQERGDVMDFYKTLRGGATVKVSASSPSLAVASQSDSKQRRLLVDFPKGSVSNAQQPDLSKAVSLSMGLYMGETETKVMGNDLGFPQQGQISLSSGETDLKLLEESIANLNRSTSVPENPKSSASTAVSAAPTEKEFPKTHSDVSSEQQHLKGQTGTNGGNVKLYTTDQSTFDILQDLEFSSGSPGKETNESPWRSDLLIDENCLLSPLAGEDDSFLLEGNSNEDCKPLILPDTKPKIKDNGDLVLSSPSNVTLPQVKTEKEDFIELCTPGVIKQEKLGTVYCQASFPGANIIGNKMSAISVHGVSTSGGQMYHYDMNTASLSQQQDQKPIFNVIPPIPVGSENWNRCQGSGDDNLTSLGTLNFPGRTVFSNGYSSPSMRPDVSSPPSSSSTATTGPPPKLCLVCSDEASGCHYGVLTCGSCKVFFKRAVEGQHNYLCTGRNDCIIDKIRRKNCPACRYRKCLQAGMNLEARKTKKKIKGIQQATTGVSQETSENPGNKTIVPATLPQLTPTLVSLLEVIEPEVLYAGYDSSVPDSTWRIMTTLNMLGGRQVIAAVKWAKAIPGFRNLHLDDQMTLLQYSWMFLMAFALGWRSYRQSSANLLCFAPDLIINEQRMTLPCMYDQCKHMLYVSSELHRLQVSYEEYLCMKTLLLLSSVPKDGLKSQELFDEIRMTYIKELGKAIVKREGNSSQNWQRFYQLTKLLDSMHEVVENLLNYCFQTFLDKTMSIEFPEMLAEIITNQIPKYSNGNIKKLLFHQK
notes: the plasmid's name says A477T, the text A458T; also called GFP-GRdim; source: COS-1, transiently transfected (DEAE-dextran), in lysate

Key:
GRwt [1] = target: T1, GRwt (Homo sapiens, UniProt P04150); assay: Promoter-reporter transactivation (pTAT-GRE2-E1b-luc) in COS-1 cells, GRwt; format: cell-based; settings: for EC50: read-out: Potency (log EC50) (converted)
T1 sequence (P04150 1-777): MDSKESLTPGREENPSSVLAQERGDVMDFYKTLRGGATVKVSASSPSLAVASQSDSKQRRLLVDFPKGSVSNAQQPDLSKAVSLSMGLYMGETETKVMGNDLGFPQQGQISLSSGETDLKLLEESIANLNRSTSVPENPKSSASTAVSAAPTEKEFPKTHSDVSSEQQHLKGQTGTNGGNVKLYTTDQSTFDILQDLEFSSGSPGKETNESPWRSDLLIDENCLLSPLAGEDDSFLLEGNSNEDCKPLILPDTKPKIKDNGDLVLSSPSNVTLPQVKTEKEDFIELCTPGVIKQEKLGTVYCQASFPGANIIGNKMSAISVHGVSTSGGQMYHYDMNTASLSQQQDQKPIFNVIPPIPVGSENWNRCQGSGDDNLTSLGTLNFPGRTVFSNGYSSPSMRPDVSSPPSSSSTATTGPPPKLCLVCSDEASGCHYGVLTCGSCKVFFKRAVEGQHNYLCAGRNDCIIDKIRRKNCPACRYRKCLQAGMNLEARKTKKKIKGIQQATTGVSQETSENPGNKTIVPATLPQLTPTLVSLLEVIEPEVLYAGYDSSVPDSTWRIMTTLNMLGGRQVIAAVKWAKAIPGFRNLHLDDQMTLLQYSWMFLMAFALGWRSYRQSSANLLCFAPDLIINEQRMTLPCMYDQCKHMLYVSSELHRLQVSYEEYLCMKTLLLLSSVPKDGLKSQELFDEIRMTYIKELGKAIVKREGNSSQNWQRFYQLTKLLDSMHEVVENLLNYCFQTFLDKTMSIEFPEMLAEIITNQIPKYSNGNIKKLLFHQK
Experimental: (§1) Cells were transfected with low, medium or high GRwt, low or medium GRdim and 3000 ng pTAT-GRE2-E1b-luc filled to 14550 ng total plasmid with empty vector. Cells were replated 24 h later into 96-well plates (4×10^4 cells/well) in charcoal-stripped DMEM. […] Cells were lysed with 30 µl of passive lysis buffer (Promega), and subjected to a freeze thaw cycle. Luciferase activity was determined using a luciferase assay kit (Promega). Light emission was measured in a Veritas microplate luminometer (Turner Biosystems). Luciferase relative light units were normalized against protein concentrations. Sigmoidal dose-response curves were fit to the experimental data which generated basal induction (bottom), maximal induction (top-bottom), fold-induction (top/bottom), and log EC50.

GRwt [2] = settings: COS-1 cells transiently transfected with high levels of GRwt; cited from earlier work
GRdim = target: T2, GRdim (Homo sapiens, UniProt P04150, A458T); assay: Promoter-reporter transactivation (pTAT-GRE2-E1b-luc) in COS-1 cells, GRdim; format: cell-based
T2 sequence (P04150 1-777 A458T): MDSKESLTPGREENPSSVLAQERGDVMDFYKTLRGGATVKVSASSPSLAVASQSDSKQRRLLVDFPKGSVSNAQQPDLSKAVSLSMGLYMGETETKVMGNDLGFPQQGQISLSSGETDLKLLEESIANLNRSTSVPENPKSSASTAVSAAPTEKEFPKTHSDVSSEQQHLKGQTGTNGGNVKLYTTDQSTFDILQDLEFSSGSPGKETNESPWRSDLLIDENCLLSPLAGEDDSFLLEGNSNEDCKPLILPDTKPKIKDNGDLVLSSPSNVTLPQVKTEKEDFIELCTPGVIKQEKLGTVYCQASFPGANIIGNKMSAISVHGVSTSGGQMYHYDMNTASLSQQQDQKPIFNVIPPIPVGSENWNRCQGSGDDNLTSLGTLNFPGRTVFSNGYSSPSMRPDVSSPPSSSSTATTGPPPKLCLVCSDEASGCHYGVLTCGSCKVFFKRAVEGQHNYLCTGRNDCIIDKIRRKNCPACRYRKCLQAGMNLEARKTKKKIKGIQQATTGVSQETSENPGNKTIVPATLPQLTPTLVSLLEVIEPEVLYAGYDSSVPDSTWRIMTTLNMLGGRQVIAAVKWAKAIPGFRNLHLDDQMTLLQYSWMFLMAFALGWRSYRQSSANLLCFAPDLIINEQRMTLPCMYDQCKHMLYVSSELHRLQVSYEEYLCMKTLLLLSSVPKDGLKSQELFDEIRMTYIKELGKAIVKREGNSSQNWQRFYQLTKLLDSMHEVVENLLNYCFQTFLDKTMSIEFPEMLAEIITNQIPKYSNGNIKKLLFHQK
Experimental: as §1

[3] = target: T3, Flag-tagged human glucocorticoid receptor alpha, wild type (pEFFlaghGRα) (human, UniProt P04150 1-777); assay: co-IP; medium or high GR levels co-transfected in COS-1 cells; cells treated 1 h with vehicle (ethanol) or 10^-6 M DEX; 200 µg lysate protein on anti-FLAG M2 affinity gel beads, 16 h at 4°C, Buffer A with 2.5% casein; immunoblot with anti-GR; GFP-GR pull-down normalized to Flag-GR; settings: partners not purified
T3 construct: glucocorticoid receptor alpha (hGRα), human, wild type; construct pEFFlaghGRα, molecular mass 96 kDa as printed; also called Flag-GR; Flag-GRwt; source: COS-1, transiently transfected (DEAE-dextran), in lysate
T3 sequence (looked up): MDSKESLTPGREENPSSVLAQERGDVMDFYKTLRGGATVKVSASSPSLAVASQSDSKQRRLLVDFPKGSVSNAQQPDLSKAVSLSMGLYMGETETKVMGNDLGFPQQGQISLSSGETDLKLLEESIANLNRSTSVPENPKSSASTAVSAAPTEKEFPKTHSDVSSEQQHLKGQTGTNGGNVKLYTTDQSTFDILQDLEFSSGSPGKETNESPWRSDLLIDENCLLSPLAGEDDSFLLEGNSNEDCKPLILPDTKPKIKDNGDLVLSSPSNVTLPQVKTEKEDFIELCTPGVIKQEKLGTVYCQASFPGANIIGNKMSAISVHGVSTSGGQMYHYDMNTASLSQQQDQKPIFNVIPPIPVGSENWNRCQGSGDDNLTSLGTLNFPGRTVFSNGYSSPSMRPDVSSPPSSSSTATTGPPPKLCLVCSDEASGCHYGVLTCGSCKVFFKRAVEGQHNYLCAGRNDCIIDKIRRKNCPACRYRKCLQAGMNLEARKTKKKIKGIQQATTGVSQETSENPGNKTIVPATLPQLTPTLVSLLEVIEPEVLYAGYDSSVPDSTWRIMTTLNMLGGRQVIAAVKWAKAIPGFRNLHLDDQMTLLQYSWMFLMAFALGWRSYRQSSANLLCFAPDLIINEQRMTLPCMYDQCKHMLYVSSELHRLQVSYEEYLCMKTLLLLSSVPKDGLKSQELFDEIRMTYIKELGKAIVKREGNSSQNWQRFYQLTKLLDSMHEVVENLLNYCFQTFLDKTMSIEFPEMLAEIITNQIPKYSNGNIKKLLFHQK

[4] = target: T3, Flag-tagged human glucocorticoid …; assay: co-IP; low GR levels co-transfected in COS-1 cells; cells treated 1 h with vehicle (ethanol), 10^-6 M DEX or 10^-5 M CpdA; 600 µg lysate protein on anti-FLAG M2 affinity gel beads, 16 h at 4°C, Buffer A with 2.5% casein; immunoblot with anti-GR; GFP-GR pull-down normalized to Flag-GR; settings: partners not purified

| Molecule | Maximal induction (RLU/mg protein) (GRwt [1]; GRwt concentration Low) | Maximal induction (RLU/mg protein) (GRwt [1]; GRwt concentration Medium) | Maximal induction (RLU/mg protein) (GRdim; GRdim concentration Low) | Maximal induction (RLU/mg protein) (GRdim; GRdim concentration Medium) | also measured |
| --- | --- | --- | --- | --- | --- |
| CC(=O)O[C@]1(C(C)=O)CC[C@H]2[C@@H]3C[C@H](C)C4=CC(=O)CC[C@]4(C)[C@H]3CC[C@@]21C [MPA, medroxyprogesterone acetate] | 3.5 x 10^4 ± 8.3 x 10^3 RLU/mg protein | 1.5 x 10^5 ± 2.3 x 10^4 RLU/mg protein |  |  | EC50 (GRwt [1]; GRwt concentration Low, pTAT-GRE2-Elb-luc, 24h): 23.4 nM; EC50 (GRwt [1]; GRwt concentration Medium): 8.71 nM |
| C[C@@H]1C[C@H]2[C@@H]3CCC4=CC(=O)C=C[C@]4(C)[C@@]3(F)[C@@H](O)C[C@]2(C)[C@@]1(O)C(=O)CO [DEX, Dexamethasone] |  |  |  |  | Kd (GRwt [2]): 12.6 nM |
| CC#C[C@]1(O)CC[C@H]2[C@@H]3CCC4=CC(=O)CCC4=C3[C@@H](c3ccc(N(C)C)cc3)C[C@@]21C [RU486, mifepristone] | 1.8 x 10^4 ± 3.7 x 10^3 RLU/mg protein | 6.4 x 10^4 ± 7.5 x 10^3 RLU/mg protein | 7.1 x 10^4 ± 8.7 x 10^3 RLU/mg protein | 4.0 x 10^5 ± 7.8 x 10^4 RLU/mg protein |  |
| C[C@]12CCC(=O)C=C1CC[C@@H]1[C@@H]2[C@@H](O)C[C@@]2(C)[C@H]1CC[C@]2(O)C(=O)CO [F, cortisol] | 2.8 x 10^4 ± 7.2 x 10^3 RLU/mg protein | 8.8 x 10^4 ± 6 x 10^3 RLU/mg protein | 3.7 x 10^4± 8.3 x 10^3 RLU/mg protein | 2.2 x 10^5 ± 5.7 x 10^4 RLU/mg protein |  |
| B1 |  |  |  |  | GFP-GR pull-down after ethanol, relative to DEX-induced GRwt set at 100 percent (high GR level) [3]: 36 to 66%; GFP-GR pull-down after ethanol, relative to DEX-induced GRwt set at 100 percent (low GR level) [4]: 36 to 66% |
